# Data taken from patent publication US20240190890A1, “MK2 INHIBITORS AND USES THEREOF” (Bristol-Myers Squibb Company, priority 2022, published 2024).
# Target: p38a activated, mitogen-activated protein kinase-activated protein kinase 2 (MAPKAP-K2 or MK2) enzyme (Homo sapiens (Human), UniProt P49137)
# Test: MK2 Omnia continuous-read kinase assay for compound potency
# Type: biochemical
# Details: [MK-2]=0.4 nM, [ATP]=10 μM, [ST3-Sox]=10 μM; room temperature
# Outline: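 p38a-activated MK2 (0.4 nM) with 10 μM ATP (apparent Km) and 10 μM S/T3-Sox peptide in Tris pH 7.5 buffer with MgCl2, EGTA and DTT. Fluorescence (ex360/em485) read continuously for 120 min at room temperature. IC50 from initial linear slopes; apparent kinact/KI from kobs of exponential progress-curve fits.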
# Sequence of p38a activated, mitogen-activated protein kinase-activated protein kinase 2 (MAPKAP-K2 or MK2) enzyme (P49137 whole entry): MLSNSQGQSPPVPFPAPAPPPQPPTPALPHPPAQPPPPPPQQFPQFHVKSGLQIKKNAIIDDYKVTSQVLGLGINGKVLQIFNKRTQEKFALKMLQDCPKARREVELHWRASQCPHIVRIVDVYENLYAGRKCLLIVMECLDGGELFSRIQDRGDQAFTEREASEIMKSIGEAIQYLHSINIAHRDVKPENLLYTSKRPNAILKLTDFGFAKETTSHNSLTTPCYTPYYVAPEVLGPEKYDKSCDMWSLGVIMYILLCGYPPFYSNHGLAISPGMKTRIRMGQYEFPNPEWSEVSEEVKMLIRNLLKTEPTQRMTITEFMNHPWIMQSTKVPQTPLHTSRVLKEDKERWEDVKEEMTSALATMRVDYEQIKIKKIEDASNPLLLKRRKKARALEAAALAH
row,SMILES,IC50 [nM]
1,"C#Cc1cc(-c2ccc3c(ccc4sc5c(c43)NC[C@@H](C)NC5=O)n2)cc(CN2C[C@@H](C)O[C@H](C)C2)n1 [Example I-188, (R)-3-(2-(((2R,6R)-2,6-dimethylmorpholino)methyl)-6-ethynylpyridin-4-yl)-10-methyl-9,10,11,12-tetrahydro-8H-[1,4]diazepino[5′,6′:4,5]thieno[3,2-f]quinolin-8-one]",25
2,"C#Cc1nncn1-c1ccc2c(ccc3sc4c(c32)NC[C@@H](C)NC4=O)n1 [Example I-204, (R)-3-(3-ethynyl-4H-1,2,4-triazol-4-yl)-10-methyl-9,10,11,12-tetrahydro-8H-[1,4]diazepino[5′,6′:4,5]thieno[3,2-f]quinolin-8-one]",555
3,"C#Cc1cc(-c2ccc3c(ccc4sc5c(c43)NC[C@@H](C)NC5=O)n2)cc(N2CCN(CC)CC2)n1 [Example I-174, (R)-3-(2-(4-ethylpiperazin-1-yl)-6-ethynylpyridin-4-yl)-10-methyl-9,10,11,12-tetrahydro-8H-[1,4]diazepino[5′,6′:4,5]thieno[3,2-f]quinolin-8-one]",98
4,"C/C=C/c1ncc(COCC)c(-c2ccc3c(ccc4sc5c(c43)NC[C@@H](C)NC5=O)n2)n1 [Example I-48, (R,E)-3-(5-(ethoxymethyl)-2-(prop-1-en-1-yl)pyrimidin-4-yl)-10-methyl-9,10,11,12-tetrahydro-8H-[1,4]diazepino[5′,6′:4,5]thieno[3,2-f]quinolin-8-one]",371
5,"C=Cc1cc(-c2ccc3c(ccc4sc5c(c43)NC[C@@H](C)NC5=O)n2)cc(N(C)CCOC)n1 [Example I-237, (R)-3-(2-((2-methoxyethyl)(methyl)amino)-6-vinylpyridin-4-yl)-10-methyl-9,10,11,12-tetrahydro-8H-[1,4]diazepino[5′,6′:4,5]thieno[3,2-f]quinolin-8-one]",10
6,"C=Cc1cc(-c2ccc3c(ccc4sc5c(c43)NCC(C)NC5=O)n2)cc(N2CCC3(CCC(=O)O3)CC2)n1 (racemic) [Example I-215, rac-(R)-8-(4-(10-methyl-8-oxo-9,10,11,12-tetrahydro-8H-[1,4]diazepino[5′,6′:4,5]thieno[3,2-f]quinolin-3-yl)-6-vinylpyridin-2-yl)-1-oxa-8-azaspiro[4.5]decan-2-one]",21
7,"C#Cc1cc(-c2ccc3c(ccc4sc5c(c43)NC[C@@H](C)NC5=O)n2)cc(N2CCC2)n1 [Example I-180, (R)-3-(2-(azetidin-1-yl)-6-ethynylpyridin-4-yl)-10-methyl-9,10,11,12-tetrahydro-8H-[1,4]diazepino[5′,6′:4,5]thieno[3,2-f]quinolin-8-one]",184
8,"C#Cc1cc(-c2ccc3c(ccc4sc5c(c43)NC[C@@H](C)NC5=O)n2)c(C(F)F)cn1 [Example I-92, (R)-3-(5-(difluoromethyl)-2-ethynylpyridin-4-yl)-10-methyl-9,10,11,12-tetrahydro-8H-[1,4]diazepino[5′,6′:4,5]thieno[3,2-f]quinolin-8-one]",17
9,"C#Cc1cc(-c2ccc3c(ccc4sc5c(c43)NC[C@@H](C)NC5=O)n2)nc(CO)n1 [Example I-78, (R)-3-(6-ethynyl-2-(hydroxymethyl)pyrimidin-4-yl)-10-methyl-9,10,11,12-tetrahydro-8H-[1,4]diazepino[5′,6′:4,5]thieno[3,2-f]quinolin-8-one]",1
10,"C=Cc1nc(C(F)(F)F)nn1-c1ccc2c(ccc3sc4c(c32)NC[C@@H](C)NC4=O)n1 [Example I-226, (R)-10-methyl-3-(3-(trifluoromethyl)-5-vinyl-1H-1,2,4-triazol-1-yl)-9,10,11,12-tetrahydro-8H-[1,4]diazepino[5′,6′:4,5]thieno[3,2-f]quinolin-8-one]",7
11,"C#Cc1ncc(C)c(-c2ccc3c(ccc4sc5c(c43)NC[C@@H](C)NC5=O)n2)n1 [Example I-41, (R)-3-(2-ethynyl-5-methylpyrimidin-4-yl)-10-methyl-9,10,11,12-tetrahydro-8H-[1,4]diazepino[5′,6′:4,5]thieno[3,2-f]quinolin-8-one]",199
12,"C#Cc1cc(-c2ccc3c(ccc4sc5c(c43)NC[C@@H](C)NC5=O)n2)cc(N2CCC(F)(F)CC2)n1 [Example I-182, (R)-3-(2-(4,4-difluoropiperidin-1-yl)-6-ethynylpyridin-4-yl)-10-methyl-9,10,11,12-tetrahydro-8H-[1,4]diazepino[5′,6′:4,5]thieno[3,2-f]quinolin-8-one]",1000
13,"C=C(CN1CCOCC1)c1cc(-c2ccc3c(ccc4sc5c(c43)NC[C@@H](C)NC5=O)n2)c(OC)nn1 [Example I-138, (R)-3-(3-methoxy-6-(3-morpholinoprop-1-en-2-yl)pyridazin-4-yl)-10-methyl-9,10,11,12-tetrahydro-8H-[1,4]diazepino[5′,6′:4,5]thieno[3,2-f]quinolin-8-one]",96
